According to article PMC6402191 (Clinical and Translational Science, 2017):
Several values for one entry are separate records, joined by “and”; a condition that tells them apart may be missing. Equal values may be shown once. Read-outs that look alike come from different tables or passages of the source. Marks after values point to notes of the source that are not given here. Each block holds one compound with its values, some of them ahead of it.

Key:
[1] = cited from earlier work; for fu (fraction unbound in plasma): ref 15 (probenecid), 16 (ibuprofen), 17, 18 (diclofenac)
MATE2-K = MATE2-K (Homo sapiens, UniProt Q86VL8); test: Inhibition of the MATE2-K-mediated uptake of baricitinib; assay type: in vitro ADME; conditions: for IC50: IC50 MATE2-K (mean), substrate 0.25 μM baricitinib, 0.5 min; for DDI index ([Iu]/IC50), MATE2-K: baricitinib as substrate
Sequence of MATE2-K (Q86VL8 1-566 isoform Q86VL8-3): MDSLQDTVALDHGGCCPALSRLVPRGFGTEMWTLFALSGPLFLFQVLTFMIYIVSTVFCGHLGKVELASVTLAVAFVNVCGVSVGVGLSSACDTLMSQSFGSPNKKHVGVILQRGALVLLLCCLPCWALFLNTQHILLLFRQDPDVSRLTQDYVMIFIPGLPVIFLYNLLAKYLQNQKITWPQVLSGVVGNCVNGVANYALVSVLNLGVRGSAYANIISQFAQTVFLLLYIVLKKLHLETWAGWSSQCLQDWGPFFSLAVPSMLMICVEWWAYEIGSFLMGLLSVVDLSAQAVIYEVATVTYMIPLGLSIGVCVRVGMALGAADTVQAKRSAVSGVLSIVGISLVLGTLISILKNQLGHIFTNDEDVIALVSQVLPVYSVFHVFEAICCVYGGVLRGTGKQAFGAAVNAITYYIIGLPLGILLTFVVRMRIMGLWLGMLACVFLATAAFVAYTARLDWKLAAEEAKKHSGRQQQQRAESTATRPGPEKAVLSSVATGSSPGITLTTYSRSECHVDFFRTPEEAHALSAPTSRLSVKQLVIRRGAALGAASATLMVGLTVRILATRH

[2] = Plasma concentrations used to calculate DDI indices and R values; assay type: in vivo, human; conditions: estimated from published Cmax and unbound fraction
OAT3 = conditions: read-out: IC50 OAT3, pemetrexed as substrate, cited from earlier work
[3] = cited from earlier work
[4] = cited from earlier work; remark: listed apart in the source
[5] = Pharmacokinetic input parameters of the PBPK models; assay type: in vivo, human
[6] = cited from earlier work; remark: listed apart in the source
[7] = Clinical baricitinib-probenecid DDI study in healthy subjects; assay type: in vivo, human
PBPK modeling = test: PBPK modeling; design: species or system human
[8] = published mean (CV) or range, ref 45 (ibuprofen), 17 (diclofenac)

Structure (SMILES): CN/C(=N/CCSCc1nc[nH]c1C)NC#N [Cimetidine]
plasma bound [1]: f 400 mg oral dose, 20% plasma bound.31
IC50 (MATE2-K): 5.1 µM
DDI index ([Iu]/IC50), MATE2-K (MATE2-K): 1.57 and 1.6
Cmax unbound inhibitor [Iu] [2]: 7900 nM

Structure (SMILES): CC(C)Cc1ccc(C(C)C(=O)O)cc1 (stereo not shown) [Ibuprofen]
fu (fraction unbound in plasma) [1]: 0.018
AUC observed [4, 8]: 218 (23) ^a μg·h/mL

Structure (SMILES): NS(=O)(=O)c1cc(C(=O)O)c(NCc2ccco2)cc1Cl [furosemide]
decrease of CLr by probenecid [4]: 66%

Structure (SMILES): CCOC(=O)C1=C[C@@H](OC(CC)CC)[C@H](NC(C)=O)[C@@H](N)C1 [oseltamivir]
decrease of clearance by probenecid [4]: 32%

More lines, main results first:

ka (first-order absorption rate constant) ([5]; calculated as 1/gastric emptying time): 6 h^‐1
Cmax unbound inhibitor [Iu] [2]: 30 nM
Structure (SMILES): O=C(O)Cc1ccccc1Nc1c(Cl)cccc1Cl [Diclofenac]
plasma bound [1]: d 100 mg oral dose, 99.7% bound to plasma.30
fu (fraction unbound in plasma) [1]: 0.003
Clearance (i.v.) ([3]; i.v., scaled by body weight to Simcyp population): Clearance = 20 ^a (i.v.) L/h
AUC observed [4, 8]: 2.7 – 4.4 ^b μg·h/mL
Cmax observed [4, 8]: 1.2 – 3.6 ^b μg/mL

Cmax unbound inhibitor [Iu] [2]: 600 nM
Structure (SMILES): CN(Cc1cnc2nc(N)nc(N)c2n1)c1ccc(C(=O)N[C@@H](CCC(=O)O)C(=O)O)cc1 [Methotrexate]
plasma bound [1]: e 15 mg s.c. dose, 46% plasma bound.30

Cmax ([7]; human, plasma, oral, 1000 mg): 145 µg/mL
Tmax ([7]; human, plasma, oral, 1000 mg b.i.d.): 2 h
Css,ave observed ([7]; probenecid 1,000 mg BID): 115 µg/mL
trough plasma concentration (Cmin) ([7]; probenecid 1,000 mg b.i.d.): 88 µg/mL
CL/F ([5]; human, plasma, po, 2000 mg/day): 12.2 mL/min
Observed/Predicted Css,ave (PBPK modeling): 1.0
Inhibition of MATE2-K-mediated baricitinib transport (in words) (MATE2-K; probenecid 0–200 μM, cimetidine, pyrimethamine 0–100 μM): did not inhibit
Cmax unbound inhibitor [Iu] [2]: 22100 nM
Structure (SMILES): CCCN(CCC)S(=O)(=O)c1ccc(C(=O)O)cc1 [Probenecid]
plasma bound [1]: a 1 g oral dose, 91% plasma bound.29
tolerability ([7]; healthy subjects, all drug-related treatment-emergent AEs mild): well tolerated
Fa (fraction absorbed) ([3]; ref 20 (probenecid), 21 (ibuprofen), 17 (diclofenac)): 1

IC50 (MATE2-K): 0.25 µM
DDI index ([Iu]/IC50), MATE2-K (MATE2-K): 0.5
DDI index ([Iu]/IC50), MATE2-K (MATE2-K; listed as pyrimethamine): 0.49
Cmax unbound inhibitor [Iu] [2]: 100 nM
Structure (SMILES): CCc1nc(N)nc(N)c1-c1ccc(Cl)cc1 [Pyrimethamine]
plasma bound [1]: g 25 mg oral dose, 87% plasma bound.32
